The experiment has as its system B-16 melanoma cells. The experiment is described as follows: Tests for tumor cell-proliferation-inhibitory effect and tumor cell-extinction (cell growth rate from viable cell count). The format is cell-based. The conditions noted are these: for tumor cell-killing effect (in words): at not less than 2 times the concentration required for proliferation inhibition; for tumor cell-proliferation-inhibitory effect (in words): summary of Table 1. As to the method: The tumor cell-proliferation-inhibitory effect and the tumor cell-killing or extinction effect can be determined according to the following method using B-16 melanoma cells.
More specifically, B-16 melanoma cells are inoculated in each well of a 6-well plate in a desired amount, followed by allowing the plate to stand at 37° C. and 5% carbon dioxide concentration to thus cultivate the cells, adding a sample solution to be tested (maslinic acid, erythrodiol, ursolic acid, uvaol, betulinic acid, betulin and physiologically acceptable salts thereof or derivatives thereof) to each well in an amount sufficient for achieving a desired concentration, on the next day or after 5 days from the initiation of the cultivation, determination of viable cell count on the 6th day after the initiation of the cultivation and calculation of the cell growth rate based on the viable cell count to thus evaluate the tumor cell-proliferation-inhibitory effect and the tumor cell-killing effect.
Tests for determining the tumor cell-proliferation-inhibitory effect and the tumor cell-killing effect were conducted according to the following method. To a 6-well plate, a culture medium was dispensed in an amount of 2 mL/well, B-16 melanoma cells were then inoculated in a desired quantity and thereafter the melanoma cells were cultivated by allowing the plate or the culture medium to stand at 37° C. and a carbon dioxide concentration of 5%. On the following day, a test sample solution prepared was added to and admixed with the content of each well to a desired concentration and the cultivation of the melanoma cells was continued. The culture medium was then exchanged on the 5th day from the initiation of the cultivation and the test sample solution was again added to each well. On the next day, the culture medium was removed to recover the cultivated melanoma cells, followed by washing the cells with PBS (phosphate buffered saline), determination of the viable cell count, and then calculation of the cell growth rate according to the following equation 1. The tumor cell-proliferation-inhibitory effect and the tumor cell-killing effect of each test sample were evaluated on the basis of the cell growth rate thus determined.
Cell Growth Rate (%)=(A/B)×100
As comparative examples, oleanolic acid, β-amyrin, α-amyrin and lupeol were added to the culture medium to thus determine and evaluate the cell growth rate by the same method used above.

The mark [1] stands for this setting: 5 ppm, viable cell count vs control on 6th day.
Setting [2] is: 10 ppm, viable cell count vs control on 6th day.
Setting [3] is: 15 ppm, viable cell count vs control on 6th day.
Setting [4] is: 20 ppm, viable cell count vs control on 6th day.
Where [5] appears, read: 25 ppm, viable cell count vs control on 6th day.
[6] abbreviates: 50 ppm, viable cell count vs control on 6th day.
[7] abbreviates: 30 ppm, viable cell count vs control on 6th day.
The mark [8] stands for this setting: 40 ppm, viable cell count vs control on 6th day.

As for “2,3-O-di-triethylsilyl-maslinic acid triethylsilyl ester [Comp. Of Synthetic Ex. 3]”, the “Cell Growth Rate” value was 93% under setting [1]; 75% under setting [2]; 54% under setting [3]; 21% under setting [4]; 0% under setting [5].
On to “2,3-O-di-stearoyl-maslinic acid ethyl ester [Comp. Of Synthetic Ex. 4]”, for which the “Cell Growth Rate” value was determined as 100% under setting [1]; 82% under setting [2]; 52% under setting [3]; 13% under setting [4]; 0% under setting [5].
For the compound `CC(=O)OC[C@]12CC[C@@H](C)[C@H](C)[C@H]1C1=CC[C@@H]3[C@@]4(C)CC[C@H](OC(C)=O)C(C)(C)[C@@H]4CC[C@@]3(C)[C@]1(C)CC2` [Comp. Of Synthetic Ex. 7, 3,28-O-di-acetyl-uvaol], the “Cell Growth Rate” value runs as follows: under setting [1], 85%; under setting [3], 71%; under setting [5], 54%; under setting [6], 42%.
Regarding `C[C@H]1[C@H](C)CC[C@]2(C)CC[C@]3(C)C(=CC[C@@H]4[C@@]5(C)CC[C@H](O)C(C)(C)[C@@H]5CC[C@]43C)[C@H]12` [α-Amyrin, α-amyrin, reference compound], the “tumor cell-killing effect (in words)” value was “not observed” and the “tumor cell-proliferation-inhibitory effect (in words)” value was “do not possess any tumor cell-proliferation-inhibitory effect at all”. Moreover, the “Cell Growth Rate” value under setting [3] is on record as 100%. In addition, under setting [4], the “Cell Growth Rate” value stood at 100%. Also, the “Cell Growth Rate” value under setting [5] was 100%. The “Cell Growth Rate” value under setting [7] was 100%. Further, the “Cell Growth Rate” value under setting [8] was 100%. Besides, the “Cell Growth Rate” value under setting [6] was 100%.
As to `CCOC(=O)[C@]12CC[C@@H](C)[C@H](C)[C@H]1C1=CC[C@@H]3[C@@]4(C)CC[C@H](O)C(C)(C)[C@@H]4CC[C@@]3(C)[C@]1(C)CC2` [Comp. Of Synthetic Ex. 6, ursolic acid ethyl ester], the “Cell Growth Rate” value under setting [1] is listed as 79%, the “Cell Growth Rate” value under setting [3] was 72%, the “Cell Growth Rate” value under setting [5] is 58% and the “Cell Growth Rate” value under setting [6] is 47%.
`CC(=O)OCC12CCC(C)(C)CC1C1=CCC3C4(C)CCC(OC(C)=O)C(C)(C)C4CCC3(C)C1(C)CC2` (stereo not shown) [Comp. Of Synthetic Ex. 5, 3,28-O-di-acetyl-erythrodiol]: the “Cell Growth Rate” value was determined as 68% under setting [1]; 50% under setting [2]; 23% under setting [3]; 0% under setting [4]; 0% under setting [5].
As to `C=C(C)[C@@H]1CC[C@]2(C(=O)OCC)CC[C@]3(C)[C@H](CC[C@@H]4[C@@]5(C)CC[C@H](O)C(C)(C)[C@@H]5CC[C@]43C)[C@@H]12` [Comp. Of Synthetic Ex. 8, betulinic acid ethyl ester], the “Cell Growth Rate” value is given as 96% under setting [1], 81% under setting [3], 69% under setting [5] and 53% under setting [6].
For the compound `CC1(C)CC[C@]2(C)CC[C@]3(C)C(=CC[C@@H]4[C@@]5(C)CC[C@H](O)C(C)(C)[C@@H]5CC[C@]43C)[C@@H]2C1` [β-Amyrin, β-amyrin, reference compound], the “tumor cell-killing effect (in words)” value was “not observed” and the “tumor cell-proliferation-inhibitory effect (in words)” value is “do not possess any tumor cell-proliferation-inhibitory effect at all”. Moreover, under setting [3], the “Cell Growth Rate” value is 100%. Also, the “Cell Growth Rate” value under setting [4] is recorded as 100%. For the same compound, the “Cell Growth Rate” value under setting [5] came out at 100%. For the same compound, the “Cell Growth Rate” value under setting [7] is given as 100%. For the same compound, under setting [8], the “Cell Growth Rate” value was 100%. Moreover, the “Cell Growth Rate” value under setting [6] came out at 100%.
On to `C=C(C)[C@@H]1CC[C@]2(COC(C)=O)CC[C@]3(C)[C@H](CC[C@@H]4[C@@]5(C)CC[C@H](OC(C)=O)C(C)(C)[C@@H]5CC[C@]43C)[C@@H]12` [Comp. Of Synthetic Ex. 9, 3,28-O-di-acetyl-betulin], for which the “Cell Growth Rate” value is, setting by setting: under setting [1], 100%; under setting [3], 79%; under setting [5], 68%; under setting [6], 60%.
Consider `C=C(C)[C@@H]1CC[C@]2(C)CC[C@]3(C)[C@H](CC[C@@H]4[C@@]5(C)CC[C@H](O)C(C)(C)[C@@H]5CC[C@]43C)[C@@H]12` [Lupeol, lupeol, reference compound], for which the “tumor cell-killing effect (in words)” value was “not observed” and the “tumor cell-proliferation-inhibitory effect (in words)” value was “do not possess any tumor cell-proliferation-inhibitory effect at all”. Further, the activity at 15 ppm (Mus musculus, B16, 144 h, 15 ppm, viable cell count vs control on 6th day, read-out: Cell Growth Rate) came to 100%. For the same compound, the activity at 20 ppm (Mus musculus, B16, 144 h, 20 ppm, viable cell count vs control on 6th day, read-out: Cell Growth Rate) worked out at 100%. Moreover, the activity at 25 ppm (Mus musculus, B16, 144 h, 25 ppm, viable cell count vs control on 6th day, read-out: Cell Growth Rate) worked out at 100%. The compound also yielded an activity at 30 ppm (Mus musculus, B16, 144 h, 30 ppm, viable cell count vs control on 6th day) of 100%. Besides, the activity at 40 ppm (Mus musculus, B16, 144 h, 40 ppm, viable cell count vs control on 6th day) came to 100%. Where the note is “Mus musculus, B16, 144 h, 50 ppm, viable cell count vs control on 6th day”, the activity at 50 ppm stood at 100%.

(Values after US20030153538A1, “Antitumor agent” (The Nisshin OilliO, Ltd., priority 2000, published 2003).)
